The values that follow come from ChEMBL document CHEMBL3507680, “University of Dundee, Gates Library screen for HepG2 cell viability”.

This data set in a line: Human HepG2 cell viability assay in 384 well format. It counts as toxicity, cell-based. Details: dose 125 nL, time 70.5 hour; cytotoxicity at 70.5 h: concentration not given beside the values. As to conditions: HepG2 cells, read-out: Inhibition.

With `Cc1ncnc2c1CCN(S(=O)(=O)C1CC1)CC2`, the cytotoxicity at 70.5 h is -13.2%.
For the molecule `CS(=O)(=O)NCc1noc2c1CN(C(=O)C1CCC1)CC2`, the cytotoxicity at 70.5 h was -8.52%.
The figure for `CNC(=O)CC1CC2(CCNCC2)c2cc(F)ccc21` (stereo unspecified) is -3.61%; for `c1cncc(CN2CCn3cc(CN4CCCCC4)nc3C2)c1` it is -5.48%.
Under `O=S(=O)(C1CC1)N1CCc2ncnc(N3CCOCC3)c2CC1` stands -7.75%; under `CCOCC1c2c(ncn2C)CCN1C(=O)c1cscn1` (stereo unspecified), 21.3%.
The figure for `OCCN1CCC(F)(F)C2(CCN(c3cccnc3)C2)C1` (stereo unspecified) is -6.87%; for `COCC(=O)NC1CC2(CCN(CCN(C)C)CC2)c2ccccc21` (stereo unspecified) it is -2.09%.
Consider `O=C([C@H]1CCCO1)N1CC[C@H](O)[C@@H]1Cc1cccnc1`, for which the cytotoxicity at 70.5 h is -4.15%.
Turning to `O=C(C1=CCCC1)N1C[C@@H]2COC[C@]2(COCC2CC2)C1`, the cytotoxicity at 70.5 h is -6.62%.
With `O=C(C1CC=CC1)N1CC[C@@H](O)[C@H]1Cc1cccnc1`, the cytotoxicity at 70.5 h came out at 1.93%.
In the case of `CCO[C@H]1CC[C@H]2[C@H]1OCCN2C(=O)COc1ccccc1`, the cytotoxicity at 70.5 h was -4.98%.
In the case of `O=C(c1cocn1)N1C[C@@H]2COC[C@]2(COc2cccnc2)C1`, the cytotoxicity at 70.5 h was -4.92%.
Consider `CC(C)CC(=O)N1CC[C@@H]2CN(Cc3cccnc3)S(=O)(=O)[C@@H]2CC1`, for which the cytotoxicity at 70.5 h was -4.78%.
As to `CNC(=O)N1CC[C@@H]2CN(Cc3ccccc3)S(=O)(=O)[C@@H]2CC1`, the cytotoxicity at 70.5 h was -6.18%.
In the case of `CN(C)CCN1CCO[C@@H]2CN(C(=O)Cc3ccsc3)CC[C@@H]2C1`, the cytotoxicity at 70.5 h is -8.58%.
Take `COCC(=O)N1C[C@H](N(C)Cc2cncnc2)[C@H]2OCCC[C@H]21`: the cytotoxicity at 70.5 h is -8.78%.
Turning to `Cn1ccc(-c2cc(C(=O)N3CCC(C(N)=O)CC3)c3ccccn23)n1`, the cytotoxicity at 70.5 h was -8.35%.
The figure for `O=S(=O)(C1CC1)N1CCC2(COCc3cnc(-c4cccnc4)nc32)C1` (stereo unspecified) is -10.6%; for `CS(=O)(=O)N1CCO[C@@H]2CN(C(=O)Cc3cccs3)CC[C@@H]2C1` it is -9.17%.
`O=C(CC1CC1)N1CCC2(COCc3cnc(-c4cccnc4)nc32)C1` (stereo unspecified): the cytotoxicity at 70.5 h was -2.06%.
Regarding `Cn1cccc1C(=O)N1C[C@@H]2C[C@@H](c3nnc(C4CC4)o3)O[C@@H]2C1`, the cytotoxicity at 70.5 h is -3.51%.
Take `NC(=O)N1C[C@H](NC(=O)c2cscn2)[C@@H]2OCCC[C@@H]21`: the cytotoxicity at 70.5 h was -6.33%.
The figure for `CS(=O)(=O)N1C[C@H](NC(=O)c2ccno2)[C@@H]2OCCC[C@@H]21` is -7.45%; for `CN(Cc1cccnc1)[C@@H]1CN(C(=O)c2ccco2)[C@@H]2CCCO[C@H]12` it is -10.7%; for `Cn1cc(CN2CCC3(CC2)CN(c2cccnc2)C(=O)CO3)cn1` it is -5.12%.
Regarding `Cc1occc1C(=O)N1CC[C@H]2C[C@@H](c3nnc(C4CC4)o3)O[C@@H]2C1`, the cytotoxicity at 70.5 h is -12%.
As for `O=C(c1cccs1)N1CC[C@H]2C[C@@H](c3nnc(C4CC4)o3)O[C@@H]2C1`, the cytotoxicity at 70.5 h was -7%.
Take `Cn1ccc(-c2cc(C(=O)N3CCC(O)CC3)c3ccccn23)n1`: the cytotoxicity at 70.5 h is 29.8%.
As for `CC(Cn1ccnc1)NCc1csc2c1CCCC2` (stereo unspecified), the cytotoxicity at 70.5 h was -0.368%.
As to `Cc1cc(C)n(Cc2cc(C(=O)N3CCCCC3c3nccs3)n[nH]2)n1` (stereo unspecified), the cytotoxicity at 70.5 h was 8.98%.
Turning to `CC(C)C1CN(c2ncccn2)CCC(=O)N1CC1CC1` (stereo unspecified), the cytotoxicity at 70.5 h was 36.1%.
As to `CSc1ccccc1NC(=O)CCC(=O)N(C)C1CCN(C)CC1`, the cytotoxicity at 70.5 h is -0.551%.
Under `O=C(NCc1ccc(Cl)s1)c1cc(CN2CCCC(O)C2)on1` (stereo unspecified) stands 19.4%.
The figure for `COC(=O)c1ccc2ccn(CC3COCCO3)c(=O)c2c1` (stereo unspecified) is -8.18%.
In the case of `Nc1ccnc(N2CCCC(CO)(Cc3cccc(Cl)c3)C2)n1` (stereo unspecified), the cytotoxicity at 70.5 h stood at 6.17%.
Consider `CCc1noc(CNc2nc(-c3cccnc3)nc3c2CCNCC3)n1`, for which the cytotoxicity at 70.5 h was -14.3%.
Regarding `COc1ccc(Cc2ncc3c(n2)CN(C(=O)CO)C3)cc1`, the cytotoxicity at 70.5 h is -6.42%.
For `Cc1nc(C(C)Nc2nc3c(s2)c(C)nn3C)n[nH]1` (stereo unspecified), the cytotoxicity at 70.5 h stood at 15.8%.
For the molecule `CCN1CCC(CC(=O)NCC(O)c2ccc3ccccc3c2)CC1` (stereo unspecified), the cytotoxicity at 70.5 h is 9.43%.
Take `CCN(C)C(=O)c1ccc(N(C)Cc2cc(-c3ccncc3)no2)nc1`: the cytotoxicity at 70.5 h was -2.26%.
Under `CC(C)Oc1cc(N2CCC(C(N)=O)CC2)nc(N)n1` stands -3.58%; under `CS(=O)(=O)Nc1ccc(-n2c(CCCO)nc3ccccc32)cn1`, 0.667%; under `CCCn1ncc(C(=O)N2CCC(N3CCCCC3)CC2)c1C`, -11.6%.
For `CCc1ncc(CN2CCN(c3cc(NC4CC4)nc(N)n3)CC2)cn1`, the cytotoxicity at 70.5 h was -15%.
Turning to `COc1ccc(CN(C)c2ccc(-c3nccn3C)nn2)cc1OC`, the cytotoxicity at 70.5 h is -5.32%.
Consider `COc1cc(Cl)cc(CN2CCCC(N3CCOCC3)C2)c1OC` (stereo unspecified), for which the cytotoxicity at 70.5 h was -5.79%.
Turning to `CCn1c(CN(C)C)nnc1C1CCN(Cc2ccccn2)CC1`, the cytotoxicity at 70.5 h worked out at 20.6%.
In the case of `O=c1n(Cc2ccccn2)nc(C2CCNCC2)n1Cc1ccccc1`, the cytotoxicity at 70.5 h turned out to be 1.51%.
Consider `Cn1nc(CN2CCCCC(N)C2)c2c(Cl)cccc21` (stereo unspecified), for which the cytotoxicity at 70.5 h was determined as 36.9%.
Under `Cc1noc(C)c1CN1C(=O)[C@H]2CC[C@@H]1CN(Cc1ccc(Cl)cc1)C2` stands 8.52%; under `Cc1nc(C2CCN(C(=O)COC(C)C)CC2)cc(N2CCOCC2)n1`, -8.64%.
The figure for `COc1cc(C)ccc1C(=O)N1C[C@@H](CN(C)CCO)[C@@H](CO)C1` is 4.4%; for `CCC[C@@H]1CN(C(=O)c2ccccc2C(C)=O)C[C@H]1N(C)C` it is 7.99%.
On to `CCOCCC(=O)N1CCCN(c2ccccc2C)CC1`, for which the cytotoxicity at 70.5 h was -4.5%.
For `O=C(NCc1ccncc1)C1CN(c2nc3ccccc3s2)CCN1` (stereo unspecified), the cytotoxicity at 70.5 h is -0.512%.
The figure for `CN(C)CCNC(=O)c1ccc(OC2CCN(CC3CC3)CC2)c(Cl)c1` is 0.798%.
For `COC1COC2(CCN(CC3CCOCC3)CC2)C1` (stereo unspecified), the cytotoxicity at 70.5 h is -11.1%.
`CN1CCN(c2ncnc3c2CCN(S(=O)(=O)C2CC2)CC3)CC1`: the cytotoxicity at 70.5 h was -11.6%.
Under `CCc1cnc(N2C[C@H]3C[C@H](C(=O)N4CCOCC4)[C@@H](C2)O3)nc1` stands -6.74%; under `Cc1ccccc1CN1C[C@@H]2COC[C@]2(CNC(=O)C2CCC2)C1`, -7.13%; under `CO[C@H]1CN(CC2CC2)[C@@H]2CCCO[C@H]12`, -9.81%.
Regarding `CCOCC1c2c(ncn2C)CCN1C(=O)c1cnc(C)cn1` (stereo unspecified), the cytotoxicity at 70.5 h is -12%.
`Cc1occc1C(=O)N1CCC2(CCN(C(=O)c3cccnc3)C2)CC1`: the cytotoxicity at 70.5 h was 5.51%.
On to `COCC(=O)NCc1cc(=O)n2c(n1)CN(CC1CC1)CCC2`, for which the cytotoxicity at 70.5 h worked out at 0.0162%.
For `COc1nn(C)c2c1CCCN(C(=O)c1cccc3cccnc13)C2`, the cytotoxicity at 70.5 h is -4.18%.
Under `c1cc(COC[C@H]2CCC[C@]23CNCCO3)ccn1` stands 0.216%; under `O=C(COc1ccccc1)N1C[C@@H]2COC[C@]2(COc2cccnc2)C1`, 4.76%.
Take `O=C(c1ccc(F)cc1)N1C[C@@H]2COC[C@]2(COc2cccnc2)C1`: the cytotoxicity at 70.5 h came out at 14.6%.
Under `O=C(NC1CCCC1)[C@@H]1C[C@@H]2CCN(Cc3ccoc3)C[C@H]2O1` stands -10%; under `CC(C)N1CCO[C@@H]2CN(C(=O)Cc3cccs3)CC[C@@H]2C1`, -6.99%; under `O=C([C@@H]1C[C@@H]2CCN(Cc3ccoc3)C[C@H]2O1)N1CCCC1`, -2.05%.
As to `O=C(N1CCCC1)N1CCC2(CC1)CN(c1cccnc1)C(=O)CO2`, the cytotoxicity at 70.5 h is -6.88%.
Under `c1cc(CN2CCO[C@H]3[C@H](OCC4CCOCC4)CC[C@@H]32)co1` stands -9.4%; under `O=C(N[C@@H]1CN(CC2CC2)[C@@H]2CCCO[C@@H]21)c1cscn1`, -1.52%; under `CC(C)NC(=O)[C@@H]1C[C@@H]2CCN(Cc3ccoc3)C[C@H]2O1`, 0.151%.
`O=C(NC1CC1)[C@@H]1C[C@@H]2CCN(Cc3ccoc3)C[C@@H]2O1`: the cytotoxicity at 70.5 h is -8.25%.
Consider `COCC1CC2(CCN(c3cccc(C)n3)CC2)CN1C(C)C` (stereo unspecified), for which the cytotoxicity at 70.5 h is -8.05%.
Consider `CS(=O)(=O)NCc1cn2c(n1)CN(Cc1cccnc1)CC2`, for which the cytotoxicity at 70.5 h was 9.87%.
Under `CN(C)CCn1c2c(ccc1=O)CC(NCc1cnn(C)c1)CC2` (stereo unspecified) stands -8.72%.
Under `Cc1cccc(CN2C[C@H](OCc3ccccn3)[C@H]3COC[C@H]32)n1` stands 5.07%; under `Cn1ccnc1CN1CCC(F)(F)C2(CCN(c3cccnc3)C2)C1` (stereo unspecified), -8.56%; under `c1cncc(COC[C@@H]2CCC[C@]23CNCCO3)c1`, 0.77%.
For the molecule `Cc1ccc(CN2C[C@@H](OCc3ccccn3)[C@H]3COC[C@H]32)o1`, the cytotoxicity at 70.5 h is -5%.
As for `Fc1ccc(CN2C[C@@H](OCc3ccccn3)[C@H]3COC[C@H]32)cc1`, the cytotoxicity at 70.5 h was -1.1%.
For the molecule `Cc1cccc(CN2CCC3(CC2)CN(c2cccnc2)C(=O)CO3)n1`, the cytotoxicity at 70.5 h was -4.77%.
Consider `c1cc(CO[C@H]2CC[C@H]3[C@H]2OCCN3Cc2nccs2)ccn1`, for which the cytotoxicity at 70.5 h was -2.27%.
Under `Fc1ccc(CN2CCO[C@H]3[C@H](OCc4ccncc4)CC[C@@H]32)cc1` stands 55.8%.
For `FC1(F)CCN(Cc2cccnc2)CC12CCN(c1ccccc1)C2` (stereo unspecified), the cytotoxicity at 70.5 h was -1.56%.
Regarding `c1ccc(CO[C@@H]2CN(Cc3cccnc3)[C@@H]3COC[C@@H]32)nc1`, the cytotoxicity at 70.5 h came to 5.82%.
Regarding `CN(C)CCN1CCC2(CC1)CN(Cc1cccnc1)C(=O)CO2`, the cytotoxicity at 70.5 h was -4.21%.
